The results in this text go back to ChEMBL document CHEMBL3991601, “The target landscape of clinical kinase drugs” (Science, 2017).

Molecules are shown by their SMILES. Activity calls are given as the source filed them.

In assay [1] the target is T1, Beta-adrenergic receptor kinase 1 (Homo sapiens, UniProt P25098).
T1 sequence (P25098 whole entry): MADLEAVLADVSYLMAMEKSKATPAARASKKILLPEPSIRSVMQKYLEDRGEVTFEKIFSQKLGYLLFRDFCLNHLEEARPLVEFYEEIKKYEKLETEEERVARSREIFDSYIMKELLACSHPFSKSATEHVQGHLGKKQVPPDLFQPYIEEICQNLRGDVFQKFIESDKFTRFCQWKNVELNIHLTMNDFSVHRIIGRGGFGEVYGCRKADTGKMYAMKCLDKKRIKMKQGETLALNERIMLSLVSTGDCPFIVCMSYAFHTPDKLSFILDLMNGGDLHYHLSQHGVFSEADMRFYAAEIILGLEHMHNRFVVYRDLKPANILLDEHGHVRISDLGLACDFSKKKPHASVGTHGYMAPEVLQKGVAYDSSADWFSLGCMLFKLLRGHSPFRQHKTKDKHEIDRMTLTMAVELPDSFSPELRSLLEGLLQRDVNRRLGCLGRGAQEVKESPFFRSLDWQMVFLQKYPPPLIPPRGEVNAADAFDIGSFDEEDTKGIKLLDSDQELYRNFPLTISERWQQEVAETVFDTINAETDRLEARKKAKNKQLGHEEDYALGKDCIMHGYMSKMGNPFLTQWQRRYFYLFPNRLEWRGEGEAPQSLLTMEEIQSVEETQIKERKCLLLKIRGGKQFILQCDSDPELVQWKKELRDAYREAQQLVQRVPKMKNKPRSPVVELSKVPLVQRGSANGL

In assay [2] the target is Cyclin-dependent kinase 3 (Homo sapiens, UniProt Q00526).
The target in assay [3] is Cyclin-dependent kinase 4 (Homo sapiens, UniProt P11802).
Assay [4] addresses T2, Mitogen-activated protein kinase kinase kinase kinase 3 (Homo sapiens, UniProt Q8IVH8).
T2 sequence (Q8IVH8 whole entry): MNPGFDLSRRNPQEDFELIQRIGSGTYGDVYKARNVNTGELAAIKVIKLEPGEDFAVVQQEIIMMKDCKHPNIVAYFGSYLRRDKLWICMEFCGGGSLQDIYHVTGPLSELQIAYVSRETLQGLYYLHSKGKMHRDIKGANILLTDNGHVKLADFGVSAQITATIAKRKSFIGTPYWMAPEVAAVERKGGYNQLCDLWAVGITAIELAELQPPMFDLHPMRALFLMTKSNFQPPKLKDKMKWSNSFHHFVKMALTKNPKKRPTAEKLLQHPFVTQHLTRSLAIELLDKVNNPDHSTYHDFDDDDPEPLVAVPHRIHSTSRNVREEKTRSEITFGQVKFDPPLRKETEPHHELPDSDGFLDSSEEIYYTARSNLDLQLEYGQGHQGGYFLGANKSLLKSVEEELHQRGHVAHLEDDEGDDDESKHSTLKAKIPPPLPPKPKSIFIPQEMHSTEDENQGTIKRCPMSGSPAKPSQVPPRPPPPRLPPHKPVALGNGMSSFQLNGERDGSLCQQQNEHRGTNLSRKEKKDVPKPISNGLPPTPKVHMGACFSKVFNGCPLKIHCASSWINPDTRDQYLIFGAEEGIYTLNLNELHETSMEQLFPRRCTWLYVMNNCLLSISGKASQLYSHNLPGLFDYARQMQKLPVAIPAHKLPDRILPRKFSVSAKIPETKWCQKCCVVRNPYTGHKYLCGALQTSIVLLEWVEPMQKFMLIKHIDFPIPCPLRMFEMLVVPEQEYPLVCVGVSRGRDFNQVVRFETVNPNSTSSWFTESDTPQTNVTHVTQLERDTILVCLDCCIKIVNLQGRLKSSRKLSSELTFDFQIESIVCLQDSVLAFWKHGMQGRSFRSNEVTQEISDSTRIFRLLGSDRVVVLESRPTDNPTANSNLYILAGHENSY

The target in assay [5] is Mitogen-activated protein kinase 7 (Homo sapiens, UniProt Q13164).
The target in assay [6] is T3, Membrane-associated tyrosine- and threonine-specific cdc2-inhibitory kinase (Homo sapiens, UniProt Q99640).
T3 sequence (Q99640 whole entry): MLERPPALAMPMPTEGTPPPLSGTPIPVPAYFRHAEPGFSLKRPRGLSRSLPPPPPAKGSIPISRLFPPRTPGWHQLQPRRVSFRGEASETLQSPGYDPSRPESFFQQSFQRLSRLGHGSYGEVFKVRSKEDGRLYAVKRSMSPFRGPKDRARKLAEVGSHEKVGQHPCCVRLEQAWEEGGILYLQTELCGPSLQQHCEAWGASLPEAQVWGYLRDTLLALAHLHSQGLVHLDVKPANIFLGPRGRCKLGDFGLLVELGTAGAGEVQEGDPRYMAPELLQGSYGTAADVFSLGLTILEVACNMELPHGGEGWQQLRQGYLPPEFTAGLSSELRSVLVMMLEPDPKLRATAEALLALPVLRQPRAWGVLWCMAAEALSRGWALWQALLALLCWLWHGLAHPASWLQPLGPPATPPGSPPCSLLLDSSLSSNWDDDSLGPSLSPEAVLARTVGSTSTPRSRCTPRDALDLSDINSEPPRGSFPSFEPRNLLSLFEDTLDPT

Assay [7] concerns the target cAMP-dependent protein kinase catalytic subunit gamma (Homo sapiens, UniProt P22612).
Assay [8] addresses Serine/threonine-protein kinase SIK3 (Homo sapiens, UniProt Q9Y2K2).
Further: in the data inactive means no Kd found up to 30 µM.

Sequence of cAMP-dependent protein kinase catalytic subunit gamma (P22612 whole entry): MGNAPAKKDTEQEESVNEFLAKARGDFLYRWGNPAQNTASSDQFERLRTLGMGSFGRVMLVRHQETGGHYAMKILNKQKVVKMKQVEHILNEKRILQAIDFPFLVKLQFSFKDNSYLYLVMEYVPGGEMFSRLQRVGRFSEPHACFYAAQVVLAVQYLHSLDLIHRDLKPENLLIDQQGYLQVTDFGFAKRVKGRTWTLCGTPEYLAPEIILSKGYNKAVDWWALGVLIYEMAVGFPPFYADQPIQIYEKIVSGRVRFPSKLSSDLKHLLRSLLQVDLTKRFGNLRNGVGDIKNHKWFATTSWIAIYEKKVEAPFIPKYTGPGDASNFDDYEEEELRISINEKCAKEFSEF
Sequence of Cyclin-dependent kinase 3 (Q00526 whole entry): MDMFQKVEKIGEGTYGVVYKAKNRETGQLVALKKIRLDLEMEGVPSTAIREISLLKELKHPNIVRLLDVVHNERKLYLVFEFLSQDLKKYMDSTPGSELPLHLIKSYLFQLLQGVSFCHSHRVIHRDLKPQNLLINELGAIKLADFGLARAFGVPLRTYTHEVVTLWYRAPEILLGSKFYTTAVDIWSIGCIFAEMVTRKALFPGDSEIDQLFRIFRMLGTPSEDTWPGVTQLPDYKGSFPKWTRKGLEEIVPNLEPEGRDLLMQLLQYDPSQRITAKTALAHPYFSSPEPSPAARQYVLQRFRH
Sequence of Serine/threonine-protein kinase SIK3 (Q9Y2K2 whole entry): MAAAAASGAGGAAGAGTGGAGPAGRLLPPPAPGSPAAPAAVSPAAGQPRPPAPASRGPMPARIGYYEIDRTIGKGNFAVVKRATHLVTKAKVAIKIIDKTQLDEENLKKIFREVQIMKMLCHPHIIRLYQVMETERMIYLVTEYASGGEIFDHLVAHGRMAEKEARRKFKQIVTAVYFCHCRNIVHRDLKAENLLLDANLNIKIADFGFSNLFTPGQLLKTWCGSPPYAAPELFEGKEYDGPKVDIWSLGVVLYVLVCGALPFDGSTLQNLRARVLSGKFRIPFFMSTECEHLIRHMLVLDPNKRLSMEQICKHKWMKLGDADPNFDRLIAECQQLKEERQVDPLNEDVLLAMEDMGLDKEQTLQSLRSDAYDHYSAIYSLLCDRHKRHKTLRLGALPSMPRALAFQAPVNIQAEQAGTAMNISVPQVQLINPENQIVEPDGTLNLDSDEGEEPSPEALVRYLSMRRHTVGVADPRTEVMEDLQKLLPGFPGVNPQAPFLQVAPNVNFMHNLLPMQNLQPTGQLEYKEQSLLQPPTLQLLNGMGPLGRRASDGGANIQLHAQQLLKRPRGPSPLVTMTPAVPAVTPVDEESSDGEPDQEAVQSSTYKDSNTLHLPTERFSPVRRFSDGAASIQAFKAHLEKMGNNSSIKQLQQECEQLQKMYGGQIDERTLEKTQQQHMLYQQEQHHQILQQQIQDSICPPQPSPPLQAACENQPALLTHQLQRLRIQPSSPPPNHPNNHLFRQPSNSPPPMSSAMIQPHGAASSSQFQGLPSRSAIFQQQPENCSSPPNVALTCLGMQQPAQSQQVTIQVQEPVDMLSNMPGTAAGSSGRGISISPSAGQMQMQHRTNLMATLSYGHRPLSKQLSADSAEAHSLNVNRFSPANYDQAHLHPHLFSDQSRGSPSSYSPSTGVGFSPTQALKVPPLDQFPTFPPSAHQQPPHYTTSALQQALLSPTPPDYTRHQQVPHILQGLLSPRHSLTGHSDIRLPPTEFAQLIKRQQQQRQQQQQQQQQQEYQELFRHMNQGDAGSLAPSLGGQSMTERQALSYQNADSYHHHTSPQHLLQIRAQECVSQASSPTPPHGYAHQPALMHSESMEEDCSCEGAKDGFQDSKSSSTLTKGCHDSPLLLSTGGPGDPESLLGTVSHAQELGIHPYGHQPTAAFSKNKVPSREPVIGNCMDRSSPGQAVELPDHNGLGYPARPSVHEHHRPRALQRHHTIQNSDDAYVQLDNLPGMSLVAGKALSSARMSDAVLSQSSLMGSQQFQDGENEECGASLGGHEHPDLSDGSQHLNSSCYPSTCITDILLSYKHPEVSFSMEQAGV
Sequence of Cyclin-dependent kinase 4 (P11802 whole entry): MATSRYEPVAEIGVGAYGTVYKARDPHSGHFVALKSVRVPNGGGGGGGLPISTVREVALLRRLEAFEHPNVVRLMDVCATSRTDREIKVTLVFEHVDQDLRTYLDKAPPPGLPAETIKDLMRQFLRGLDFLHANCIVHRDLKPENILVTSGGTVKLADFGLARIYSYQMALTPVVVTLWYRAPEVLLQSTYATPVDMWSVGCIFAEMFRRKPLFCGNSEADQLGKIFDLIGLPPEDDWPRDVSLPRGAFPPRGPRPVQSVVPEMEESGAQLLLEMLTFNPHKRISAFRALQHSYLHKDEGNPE
Sequence of Mitogen-activated protein kinase 7 (Q13164 whole entry): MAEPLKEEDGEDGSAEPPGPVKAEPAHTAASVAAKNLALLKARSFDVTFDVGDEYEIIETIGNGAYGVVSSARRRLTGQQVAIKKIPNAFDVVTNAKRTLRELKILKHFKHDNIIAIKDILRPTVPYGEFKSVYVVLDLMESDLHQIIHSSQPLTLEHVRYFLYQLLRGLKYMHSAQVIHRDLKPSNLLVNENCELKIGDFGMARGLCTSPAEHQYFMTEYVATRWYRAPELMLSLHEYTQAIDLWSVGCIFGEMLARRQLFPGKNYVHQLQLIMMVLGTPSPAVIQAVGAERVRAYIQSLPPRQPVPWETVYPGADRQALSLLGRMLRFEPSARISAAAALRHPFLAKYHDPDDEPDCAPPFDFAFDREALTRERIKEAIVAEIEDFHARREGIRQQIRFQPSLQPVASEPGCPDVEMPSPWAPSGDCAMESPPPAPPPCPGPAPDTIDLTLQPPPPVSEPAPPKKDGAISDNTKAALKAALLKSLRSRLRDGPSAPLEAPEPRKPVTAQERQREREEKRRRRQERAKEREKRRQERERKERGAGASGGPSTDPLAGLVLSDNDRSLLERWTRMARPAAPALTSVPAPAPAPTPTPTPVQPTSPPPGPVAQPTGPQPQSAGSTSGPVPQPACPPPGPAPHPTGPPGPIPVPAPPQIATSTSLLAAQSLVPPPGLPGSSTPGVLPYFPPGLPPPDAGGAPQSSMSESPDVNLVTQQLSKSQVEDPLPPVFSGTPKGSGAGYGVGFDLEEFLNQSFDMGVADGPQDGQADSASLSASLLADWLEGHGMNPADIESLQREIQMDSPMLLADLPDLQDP

For the molecule `Cc1ccc(S(=O)(=O)Nc2nc3ccccc3nc2Nc2ccc3nsnc3c2)cc1`, the Kd in assay [1], in assay [2], in assay [3], in assay [4], in assay [5] and in assay [6] was > 30 µM (inactive) in each case. The Kd in assay [7] and in assay [8] was > 30 µM (inactive) each time.
For `Cn1cc(-c2ccc(F)c(C(F)(F)F)c2)nc1C1CCN(c2ncnc3[nH]ncc23)CC1` [LY-2584702], the Kd in assay [1], in assay [2], in assay [3], in assay [4], in assay [5] and in assay [6] was > 30 µM (inactive) throughout. Moreover, the Kd in assay [7] and in assay [8] was > 30 µM (inactive) each time.
Regarding `COc1cc(OC)c(/C=C/S(=O)(=O)Cc2ccc(OC)c(NCC(=O)O)c2)c(OC)c1` [RIGOSERTIB], the Kd in assay [1], in assay [2], in assay [3], in assay [4], in assay [5] and in assay [6] was > 30 µM (inactive) throughout. For the same molecule, the Kd in assay [7] and in assay [8] was > 30 µM (inactive) throughout.
As for `CCn1c(=O)c(-c2cc[nH]n2)cc2c(C)nc(N)nc21` [VOXTALISIB], the Kd in assay [1], in assay [2], in assay [3], in assay [4], in assay [5] and in assay [6] was > 30 µM (inactive) each time. For the same molecule, the Kd in assay [7] and in assay [8] was > 30 µM (inactive) in each case.
`CO[C@H]1C[C@@H]2CC[C@@H](C)[C@@](O)(O2)C(=O)C(=O)N2CCCC[C@H]2C(=O)O[C@H]([C@H](C)C[C@@H]2CC[C@@H](OCCO)[C@H](OC)C2)CC(=O)[C@H](C)/C=C(\C)[C@@H](O)[C@@H](OC)C(=O)[C@H](C)C[C@H](C)/C=C/C=C/C=C/1C` [EVEROLIMUS]: the Kd in assay [1], in assay [2], in assay [3], in assay [4], in assay [5] and in assay [6] was > 30 µM (inactive) each time. Further, the Kd in assay [7] and in assay [8] was > 30 µM (inactive) each time.
With `O=C(Nc1ccc(-c2ccnc(Nc3ccc(N4CCOCC4)cc3)n2)cc1)C1CCCN1` (stereo unspecified) [XL-019], the Kd in assay [1], in assay [2], in assay [3], in assay [4], in assay [5] and in assay [6] was > 30 µM (inactive) in each case. The Kd in assay [7] is > 30 µM (inactive); in assay [8], 0.206 µM (active).
For `CNC(=O)CN1CCC(Oc2cc3c(Nc4cccc(Cl)c4F)ncnc3cc2OC)CC1` [SAPITINIB], the Kd in assay [1], in assay [2], in assay [3], in assay [4], in assay [5] and in assay [6] was > 30 µM (inactive) in each case. Further, the Kd in assay [7] and in assay [8] was > 30 µM (inactive) each time.
Turning to `CC(=O)Nc1cccc(-n2c(=O)n(C3CC3)c(=O)c3c(Nc4ccc(I)cc4F)n(C)c(=O)c(C)c32)c1` [TRAMETINIB], the Kd in assay [1], in assay [2], in assay [3], in assay [4], in assay [5] and in assay [6] was > 30 µM (inactive) each time. For the same molecule, the Kd in assay [7] and in assay [8] was > 30 µM (inactive) throughout.
Take `Cc1cc(Nc2cc(N3CCN(C)CC3)nc(/C=C/c3ccccc3)n2)n[nH]1` [ENMD-2076]: the Kd in assay [1], in assay [2], in assay [3], in assay [4], in assay [5] and in assay [6] was > 30 µM (inactive) in each case. In addition, the Kd in assay [7] and in assay [8] was > 30 µM (inactive) each time.
As for `COC(=O)N[C@@H](C)CNc1nccc(-c2cn(C(C)C)nc2-c2cc(Cl)cc(NS(C)(=O)=O)c2F)n1` [ENCORAFENIB], the Kd in assay [1] is > 30 µM (inactive); in assay [2], > 30 µM (inactive); in assay [3], 0.112 µM (active); in assay [4], > 30 µM (inactive); in assay [5], > 30 µM (inactive); in assay [6], > 30 µM (inactive). For the same molecule, the Kd in assay [7] and in assay [8] was > 30 µM (inactive) each time.
On to `COC(=O)[C@@]1(O)C[C@H]2O[C@]1(C)n1c3ccccc3c3c4c(c5c6ccccc6n2c5c31)C(=O)NC4` [K-252A], for which the Kd is > 30 µM (inactive) in assay [1]; 0.032 µM (active) in assay [2]; 0.014 µM in assay [3]; 2.37 µM (active) in assay [4]; > 30 µM (inactive) in assay [5]; > 30 µM (inactive) in assay [6]. Further, the Kd in assay [7] is > 30 µM (inactive); in assay [8], 4.03 µM (active).
On to `CCS(=O)(=O)N1CC(CC#N)(n2cc(-c3ncnc4[nH]ccc34)cn2)C1` [BARICITINIB], for which the Kd in assay [1], in assay [2], in assay [3], in assay [4], in assay [5] and in assay [6] was > 30 µM (inactive) throughout. For the same molecule, the Kd in assay [7] and in assay [8] was > 30 µM (inactive) in each case.
As for `COc1ccc(-c2ccc3c(N4CCOC[C@@H]4C)nc(N4CCOC[C@@H]4C)nc3n2)cc1CO` [AZD-8055], the Kd in assay [1], in assay [2], in assay [3], in assay [4], in assay [5] and in assay [6] was > 30 µM (inactive) in each case. Besides, the Kd in assay [7] and in assay [8] was > 30 µM (inactive) in each case.
Take `N[C@@H]1CCCN(c2c(/C=C3\SC(=O)NC3=O)cccc2-c2ccccc2)C1`: the Kd in assay [1], in assay [2], in assay [3], in assay [4], in assay [6] and in assay [7] was > 30 µM (inactive) each time. The Kd in assay [8] is > 30 µM (inactive).
